Starred links: 1 amine or outer side, 2 acyl side, 3 side chain; linkers in the order of their positions; H or OH if unused. Non-standard residues stand in square brackets, D forms with d. Residues, ends and D or L forms follow the SMILES beside them. *: point of attachment. Propanoyl(3-(3-pyridyl)) = O=C(CCc1cccnc1)*; Propanoyl(3-(4-pyridyl)) = O=C(CCc1ccncc1)*; Acetyl(pyridin-2-yl) = O=C(Cc1ccccn1)*; Sta = CC(C)C[C@H](N)[C@@H](O)CC(=O)O; Acetyl(3-pyridyl) = O=C(Cc1cccnc1)*; Acetyl(4-pyridyl) = O=C(Cc1ccncc1)*; X3 = O=C(CC1CCCN([*:1])C1)[*:2]; Nicotinoyl = O=C(c1cccnc1)*; X2 = O=C(CCC(=O)*)c1ccccn1; X6 = O=C(CCC(=O)*)c1cccnc1; X5 = O=C(CCC(O)c1ccccn1)*; X7 = O=C(CCC(O)c1cccnc1)*; Nle = CCCC[C@H](N)C(=O)O; X1 = O=C(CCCc1ccccn1)*; X8 = O=C(CCCc1cccnc1)*; Boc = CC(C)(C)OC(=O)*
The molecules below were run against T1, human plasma renin (Homo sapiens, UniProt P00797) (assay: Inhibition of human plasma renin activity (PRA) in vitro, angiotensin I released measured by radioimmunoassay). Settings: human plasma pool rich in renin, 60 minutes at 37° C., phosphate buffer pH 7.4; 5 to 10 doses; read-out: Inhibition of human PRA -log IC50 M pH 7.4 (converted).
T1 construct: from tissue; host or cells: human plasma pool
T1 sequence (P00797 67-406): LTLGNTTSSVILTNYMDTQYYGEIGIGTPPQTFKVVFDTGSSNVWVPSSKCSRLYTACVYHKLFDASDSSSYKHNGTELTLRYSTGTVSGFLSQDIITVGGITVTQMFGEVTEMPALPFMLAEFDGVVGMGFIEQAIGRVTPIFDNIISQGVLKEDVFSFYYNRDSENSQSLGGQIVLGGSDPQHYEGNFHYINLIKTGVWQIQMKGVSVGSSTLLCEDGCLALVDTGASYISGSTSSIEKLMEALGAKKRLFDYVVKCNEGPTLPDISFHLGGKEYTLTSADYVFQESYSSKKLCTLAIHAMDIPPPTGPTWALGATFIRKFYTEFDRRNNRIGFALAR
Type: biochemical
Experimental: The products according to the invention were studied for their therapeutic properties and especially their inhibitory action on enzymes. More particularly, the compounds were evaluated "in vitro" in terms of their inhibition of human plasma renin activity (PRA).
Human plasma contains the substrate angiotensinogen and the enzyme renin. […] An inhibitor of the conversion enzyme, phenylmethylsulfonyl fluoride (PMSF), is added to the incubation medium.
420 microliters of human plasma
11 to 50 microliters of the product to be studied, at variable concentrations
A solution of acetic acid in methaol (19/1 by volume) and a solution of sodium hydroxide in methanol (2/1 by volume) are prepared. In a mixture of equal volumes of these 2 solutions, a 0.001M stock solution of the peptide is prepared. The subsequent dilutions of the peptide are then made up in the phosphate buffer.
The results are expressed by their logarithmic value (-log IC50).

**Q.** CCCC[C@H](NC(=O)[C@H](Cc1ccccc1)NC(=O)CCC(=O)c1ccccn1)C(=O)N[C@@H](CC(C)C)[C@@H](O)CC(=O)N[C@@H](CC(C)C)C(=O)N[C@@H](Cc1ccccc1)C(=O)OC [SR 42793] (X2-F[Nle][Sta]LF-OMe) was tested. Which IC50 did it give?
**A.** Its IC50 is 891 nM.

**Q.** For CCCC[C@H](NC(=O)[C@H](Cc1ccccc1)NC(=O)c1cccnc1)C(=O)N[C@@H](CC(C)C)[C@@H](O)CC(=O)N[C@@H](C)C(=O)N[C@@H](CC(C)C)C(=O)OC [SR 42873, N-(Nicotinoyl)-Phe-Nle-Sta-Ala-Leu-OMe] (Nicotinoyl-F[Nle][Sta]AL-OMe), which IC50 is on record?
**A.** The IC50 was 81.3 nM.

**Q.** For CCCC[C@H](NC(=O)[C@H](Cc1ccccc1)NC(=O)CCC(O)c1ccccn1)C(=O)N[C@@H](CC(C)C)[C@@H](O)CC(=O)N[C@@H](CC(C)C)C(=O)N[C@@H](Cc1ccccc1)C(=O)OC (stereo partly shown) [SR 42991] (X5-F[Nle][Sta]LF-OMe), which IC50 is on record?
**A.** Its IC50 is 58.9 nM.

**Q.** With CCCC[C@H](NC(=O)[C@H](Cc1ccccc1)NC(=O)CCC(=O)c1cccnc1)C(=O)N[C@@H](CC(C)C)[C@@H](O)CC(=O)N[C@@H](CC(C)C)C(=O)N[C@@H](Cc1ccccc1)C(=O)OC [SR 43108, N--(4-(pyridin-3-yl)-4-oxobutyryl)-Phe--Nle--Sta--Leu--Phe--OMe] (X6-F[Nle][Sta]LF-OMe) as the molecule, how does the IC50 read?
**A.** The IC50 was 447 nM.

**Q.** How did the IC50 turn out when CCCC[C@H](NC(=O)[C@H](Cc1ccccc1)NC(=O)CCC(O)c1cccnc1)C(=O)N[C@@H](CC(C)C)[C@@H](O)CC(=O)N[C@@H](CC(C)C)C(=O)N[C@@H](Cc1ccccc1)C(=O)OC (stereo partly drawn) [SR 43123, (R,S)--N--(4-(pyridin-3-yl)-4-hydroxybutyryl)-Phe--Nle--Sta--Leu--Phe--OMe] (X7-F[Nle][Sta]LF-OMe) was run?
**A.** The IC50 was 81.3 nM.

**Q.** For CCCC[C@H](NC(=O)[C@H](Cc1ccccc1)NC(=O)Cc1cccnc1)C(=O)N[C@@H](CC(C)C)[C@@H](O)CC(=O)N[C@@H](CC(C)C)C(=O)N[C@@H](Cc1ccccc1)C(=O)OC [SR 43282, N--(pyridin-3-ylacetyl)-Phe--Nle--Sta--Leu--Phe--OMe] ({Acetyl(3-pyridyl)}-F[Nle][Sta]LF-OMe), which IC50 is on record?
**A.** Its IC50 is 79.4 nM.

**Q.** CCCC[C@H](NC(=O)[C@H](Cc1ccccc1)NC(=O)Cc1ccccn1)C(=O)N[C@@H](CC(C)C)[C@@H](O)CC(=O)N[C@@H](CC(C)C)C(=O)N[C@@H](Cc1ccccc1)C(=O)OC [SR 43314, N--(pyridin-2-ylacetyl)-Phe--Nle--Sta--Leu--Phe--OMe] ({Acetyl(pyridin-2-yl)}-F[Nle][Sta]LF-OMe) was tested. Which IC50 did it give?
**A.** Its IC50 is 295 nM.

**Q.** For CCCC[C@H](NC(=O)[C@H](Cc1ccccc1)NC(=O)CCc1cccnc1)C(=O)N[C@@H](CC(C)C)[C@@H](O)CC(=O)N[C@@H](CC(C)C)C(=O)N[C@@H](Cc1ccccc1)C(=O)OC [SR 43454, N--(3-(pyridin-3-yl)propionyl)-Phe--Nle--Sta--Leu--Phe--OMe] ({Propanoyl(3-(3-pyridyl))}-F[Nle][Sta]LF-OMe), which IC50 is on record?
**A.** Its IC50 is 67.6 nM.

**Q.** Which IC50 does the source give for CCCC[C@H](NC(=O)[C@H](Cc1ccccc1)NC(=O)CCCc1ccccn1)C(=O)N[C@@H](CC(C)C)[C@@H](O)CC(=O)N[C@@H](CC(C)C)C(=O)N[C@@H](Cc1ccccc1)C(=O)OC [SR 43484, N--(4-(pyridin-2-yl)butyryl)-Phe--Nle--Sta--Leu--Phe--OMe] (X1-F[Nle][Sta]LF-OMe) here?
**A.** The IC50 was 100 nM.

**Q.** How did the IC50 turn out when CCCC[C@H](NC(=O)[C@H](Cc1ccccc1)NC(=O)CC1CCCN(C(=O)OC(C)(C)C)C1)C(=O)N[C@@H](CC(C)C)[C@@H](O)CC(=O)N[C@@H](CC(C)C)C(=O)N[C@@H](Cc1ccccc1)C(=O)OC (stereo partly shown) [SR 43519, N--(N--Boc--piperidin-3-ylacetyl)-Phe--Nle--Sta--Leu--Phe--OMe] (Boc-[X3]F[Nle][Sta]LF-OMe) was run?
**A.** Its IC50 is 174 nM.

**Q.** For CCCC[C@H](NC(=O)[C@H](Cc1ccccc1)NC(=O)CCc1ccncc1)C(=O)N[C@@H](CC(C)C)[C@@H](O)CC(=O)N[C@@H](CC(C)C)C(=O)N[C@@H](Cc1ccccc1)C(=O)OC [SR 43633, N--(3-(pyridin-4-yl)propionyl)-Phe--Nle--Sta--Leu--Phe--OMe] ({Propanoyl(3-(4-pyridyl))}-F[Nle][Sta]LF-OMe), which IC50 is on record?
**A.** Its IC50 is 204 nM.

**Q.** How did the IC50 turn out when CCCC[C@H](NC(=O)[C@H](Cc1ccccc1)NC(=O)Cc1ccncc1)C(=O)N[C@@H](CC(C)C)[C@@H](O)CC(=O)N[C@@H](CC(C)C)C(=O)N[C@@H](Cc1ccccc1)C(=O)OC [SR 43781, N--(pyridin-4-ylacetyl)-Phe--Nle--Sta--Leu--Phe--OMe] ({Acetyl(4-pyridyl)}-F[Nle][Sta]LF-OMe) was run?
**A.** Its IC50 is 132 nM.

**Q.** How did the IC50 turn out when CCCC[C@H](NC(=O)[C@H](Cc1ccccc1)NC(=O)CCCc1cccnc1)C(=O)N[C@@H](CC(C)C)[C@@H](O)CC(=O)N[C@@H](CC(C)C)C(=O)N[C@@H](Cc1ccccc1)C(=O)OC [SR 43782, N--(4-(pyridin-3-yl)butyryl)-Phe--Nle--Sta--Leu--Phe--OMe] (X8-F[Nle][Sta]LF-OMe) was run?
**A.** Its IC50 is 41.7 nM.
